Data set [1] deals with human μ opioid receptor (MOR) (human) (UniProt P35372).
Data set [2] deals with T1, human MOR (Homo sapiens, UniProt P35372). The data set is described as follows: biochemical. It counts as binding. The following applies: for % Inhibition of [3H]-diprenorphine binding, MOR: 10 μM test compound, mean n = 2.
Data set [3] deals with human δ opioid receptor (DOR) (Homo sapiens, UniProt P41143). The data set is described as follows: Receptor binding assay, primary screening, [3H]-naltrindole, DOR. The note with it: 10 μM test compound, mean n = 2.
In another data set the target is human KOR (Homo sapiens, UniProt P41145). The data set is described as follows: Receptor binding assay, primary screening, [3H]-diprenorphine, KOR. The following applies: 10 μM test compound, mean n = 2.
Data set [4] deals with human nociception receptor (NOP) (Homo sapiens, UniProt P41146). The data set is described as follows: Receptor binding assay, primary screening, [3H]-nociceptin, NOP. The note with it: 10 μM test compound, mean n = 2.
For data set [5], the system named is rat whole brain. The data set is described as follows: Receptor binding assay, primary screening, [3H]-naloxone, rat whole brain. The following applies: 10 μM test compound, mean n = 2.
For another data set, the target named is T2, human MOR-GFP (Homo sapiens, UniProt P35372).
T2 construct: Human MOR cDNAs (NM_000914) with or without a stop codon were amplified from the Flexi ORF clone; expressed in transfected cells
It counts as cell-based.

Data set [6] deals with normal mice. The data set is described as follows: Tail-flick test. It counts as in vivo. The protocol:
(§1) Analgesic activity of ignavine was investigated by the tail-flick (Fig. 6A) and tail-pressure tests in normal mice (Fig. 6B). […] Maximum activity was shown at a dose of 0.1 mg/kg and analgesic activity was attenuated at higher doses. These dose-dependent relationships were similar to the results of in vitro assays.
(§2) Antinociceptive responses were evaluated by the tail-flick test (Tail flick unit; Ugo Basile, Comerio, Italy) and the tail-pressure test (Pressure analgesimeter; Ugo Basile). The latency (sec) or weight (g) at which mice struggled or withdrew was considered the nociceptive threshold.

The subject of data set [7] is normal mice. Nature of the data set: Tail-pressure test. It counts as in vivo. As for the experimental part:
as §1, §2

Data set [8] can be described thus: Rat pharmacokinetic study of GJG, plasma LC/MS/MS. It counts as in vivo. The following applies: GJG 1 g/kg oral, 1 h after administration. The protocol: A pharmacokinetic study of GJG was performed to identify the bioavailable molecules in PAT. GJG (1 g/kg) was orally administered to rats and blood samples were collected 1 h after administration. Then, representative components of PAT in the collected blood samples were measured by LC/MS/MS. […] Therefore, we further investigated whether ignavine and benzoylmesaconine affect the opioid system.
Male Sprague-Dawley rats (7 weeks, Japan Clea Inc., Tokyo, Japan) were fasted for more than 16 hours with access to water. At 1 h after oral administration of GJG (1.0 g/10 mL/kg, n = 5), blood samples were collected with a heparin-coated syringe and centrifuged at 1,500 × g for 15 minutes at 4 °C. The plasma samples were stored at −80 °C until use.
Plasma samples were pretreated by solid-phase extraction (Oasis® MCX μ Elution Plate, 30 μm; Waters Corporation, Milford, MA, USA) and injected into the LC/MS/MS system for analysis. Components of GJG in plasma were measured by a QTRAP®5500 system (AB SCIEX, Framingham, MA, USA) equipped with an Agilent 1260 HPLC system (binary pump, online degasser, auto plate-sampler and column oven; Agilent Technologies, Santa Clara, CA, USA). The lower limits for quantification were 0.01 ng/mL for ignavine; 0.002 ng/mL for benzoylaconine; 0.001 ng/mL for benzoylmesaconine, benzoylhypaconine and 14-anisoylaconine.

Details of data set [9]: method as in PMID 7116516. The following applies: acetic acid-induced writhing and carrageenan paw edema test; cited from earlier work. On the technique in general: An intraperitoneal irritant provokes the stretching counted in writhing tests.
For data set [10], the target named is T1, human MOR. The data set is described as follows: biochemical. It counts as binding. The arrangement: Human MOR cDNAs (NM_000914) with or without a stop codon were amplified from the Flexi ORF clone; expressed in transfected cells; pcDNA3.1(+); the cAMP line also carries pGloSensor-22F.
In data set [11] the target is T1, human MOR. It counts as cell-based. The arrangement: Human MOR cDNAs (NM_000914) with or without a stop codon were amplified from the Flexi ORF clone; expressed in transfected cells; pcDNA3.1(+); the cAMP line also carries pGloSensor-22F.
Data set [12] has as its target rat whole brain. The following applies: read-out: Kd of radioligand, rat brain; assay condition of the binding assay; ref MDS Pharma Services; cited from earlier work.
[13] abbreviates: intra-peritoneal administration, area under the curve.
[14] abbreviates: intra-peritoneal, attenuated at higher doses.

pIC50, pKd: −log10 of the molar value. “Also recorded” adds a separate entry of the source.

Chain of human KOR (P41145 whole entry): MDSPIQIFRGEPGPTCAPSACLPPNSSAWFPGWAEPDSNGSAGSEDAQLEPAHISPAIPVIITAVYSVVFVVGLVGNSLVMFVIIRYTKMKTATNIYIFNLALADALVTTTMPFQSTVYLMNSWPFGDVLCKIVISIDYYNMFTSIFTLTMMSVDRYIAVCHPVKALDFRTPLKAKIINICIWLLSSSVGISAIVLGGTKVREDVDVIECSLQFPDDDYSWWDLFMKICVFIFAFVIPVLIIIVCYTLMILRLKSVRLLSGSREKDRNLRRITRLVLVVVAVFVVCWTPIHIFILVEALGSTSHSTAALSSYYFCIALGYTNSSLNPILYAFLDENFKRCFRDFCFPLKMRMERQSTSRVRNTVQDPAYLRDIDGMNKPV
T2 sequence (P35372 whole entry): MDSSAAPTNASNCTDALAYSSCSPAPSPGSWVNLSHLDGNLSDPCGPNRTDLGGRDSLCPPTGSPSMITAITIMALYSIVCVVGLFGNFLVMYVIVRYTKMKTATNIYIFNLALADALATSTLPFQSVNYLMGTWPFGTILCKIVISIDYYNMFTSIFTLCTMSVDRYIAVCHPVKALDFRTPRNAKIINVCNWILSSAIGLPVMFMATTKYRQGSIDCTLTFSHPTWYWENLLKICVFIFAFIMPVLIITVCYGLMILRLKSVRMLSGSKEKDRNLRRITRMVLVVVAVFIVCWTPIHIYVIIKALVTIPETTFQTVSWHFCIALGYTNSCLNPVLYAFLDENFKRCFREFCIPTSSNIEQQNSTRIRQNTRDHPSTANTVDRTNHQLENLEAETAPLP
T1 sequence (P35372 whole entry): as above
Chain of human δ opioid receptor (DOR) (P41143 whole entry): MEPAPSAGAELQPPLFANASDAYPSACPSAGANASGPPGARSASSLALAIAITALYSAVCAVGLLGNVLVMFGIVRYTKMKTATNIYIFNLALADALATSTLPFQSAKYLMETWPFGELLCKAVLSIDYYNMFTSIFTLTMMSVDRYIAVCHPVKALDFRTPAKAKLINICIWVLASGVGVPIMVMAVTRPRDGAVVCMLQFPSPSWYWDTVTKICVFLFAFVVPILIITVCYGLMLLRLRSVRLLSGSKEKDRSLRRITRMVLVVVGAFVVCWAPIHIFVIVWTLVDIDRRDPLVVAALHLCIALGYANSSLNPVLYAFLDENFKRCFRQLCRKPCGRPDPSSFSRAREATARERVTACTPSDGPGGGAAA
Chain of human nociception receptor (NOP) (P41146 whole entry): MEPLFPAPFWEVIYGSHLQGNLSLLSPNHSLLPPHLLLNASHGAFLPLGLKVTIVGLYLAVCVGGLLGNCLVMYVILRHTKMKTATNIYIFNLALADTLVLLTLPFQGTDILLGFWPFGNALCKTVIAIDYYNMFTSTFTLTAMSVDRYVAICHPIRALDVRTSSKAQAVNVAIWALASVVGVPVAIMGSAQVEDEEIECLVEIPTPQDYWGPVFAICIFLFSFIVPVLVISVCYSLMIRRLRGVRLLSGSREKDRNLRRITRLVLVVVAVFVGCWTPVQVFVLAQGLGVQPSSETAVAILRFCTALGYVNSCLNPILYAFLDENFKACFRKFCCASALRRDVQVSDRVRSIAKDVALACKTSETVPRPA
Chain of human μ opioid receptor (MOR) (human) (P35372 whole entry): as the sequence (P35372 whole entry) above

In data set [1], “D-Ala(2)-N-Me-Phe(4)-Gly-ol(5)-enkephalin (peptide)” had an EC50 of DAMGO in the intracellular cAMP assay, fold change with 1 μM ignavine against DMSO, 7.5 min after forskolin of 3.8 fold and an EC50 of DAMGO in the intracellular cAMP assay, fold change with 10 μM ignavine against DMSO, 23.5 min after forskolin of 3.3 fold.

As for `C=C1C2CC3C4N5CC6(C)C(O)C(OC(=O)c7ccccc7)CC47C6C5CC3(C1O)C7(O)C2` (stereo not shown) [ignavine], on human MOR [2], the “% Inhibition of [3H]-diprenorphine binding, MOR” value is given as “almost completely inhibited”. For the same molecule, on human MOR [2] (read-out: % Inhibition of [3H]-diprenorphine binding, MOR), the inhibition at 10 µM turned out to be 90%. The inhibition at 10 µM in data set [3] (read-out: % Inhibition of radioligand binding, DOR) was -5%. In addition, at human KOR, the “% Inhibition of [3H]-diprenorphine binding, KOR” value is “Neither ignavine nor benzoylmesaconine inhibited” and the inhibition at 10 µM turned out to be 0%. Besides, in data set [4] (read-out: % Inhibition of radioligand binding, NOP), the inhibition at 10 µM is -7%. In addition, in the data set on rat whole brain [5] (10 µM), the “% Inhibition of [3H]-naloxone binding, rat brain” value (shortened to “% Inhibition … rat brain”) is given as “also inhibited its binding”. In addition, in the data set with rat whole brain [5] (listed as Ignavine, 10 µM), the “% Inhibition … rat brain” value is reported as 92%. Besides, at human MOR-GFP, the “MOR internalization, ignavine alone” value is given as “did not affect receptor internalization”. Also, the “Analgesic activity, tail-flick test” value in the data set on normal mice [6] (setting [13]) is on record as “inhibited pain”. Further, the “Dose of maximum analgesic activity, tail-flick test” value in the data set with normal mice [6] (setting [14]) is reported as 0.1 mg/kg. Further, the “Analgesic activity, tail-pressure test” value in the data set on normal mice [7] (setting [13]) is on record as “inhibited pain”. Besides, the “Dose of maximum analgesic activity, tail-pressure test” value with normal mice [7] (setting [14]) is reported as 0.1 mg/kg. Further, the “Plasma concentration after oral GJG” value in [8] is “highest concentration among the measured components; also recorded: higher concentrations”. Besides, in [9], the “Anti-inflammatory activity and adverse effects” value is on record as “anti-inflammatory activity”. In addition, the pIC50 at human MOR [10] was 5.70. At human MOR [11], the “Effect on intracellular cAMP levels, ignavine alone” value is listed as “no effect”; the “Fold increase of EC50 of DAMGO” value is given as 3.3 fold; the “Modulation of DAMGO activity in cAMP assay, early period” value was “enhancing the activity of DAMGO”; the “Modulation of DAMGO activity in cAMP assay, later period” value is “inhibiting DAMGO activity”. On human MOR [11], the “Modulation of endomorphin-1 (EMP-1) activity in cAMP assay” value was “positive modulation”, the “Modulation of endomorphin-1 activity in cAMP assay” value is “inhibited them”, the “Modulation of morphine (MRP) activity in cAMP assay” value was “positive modulation” and the “Modulation of morphine activity in cAMP assay” value is “inhibited them”. In addition, the “Response in cAMP assay in the presence of naloxone” value on human MOR [11] is given as “did not show a clear response”.

Consider `C[C@@H](NC(=O)[C@@H](N)Cc1ccc(O)cc1)C(=O)NCC(=O)N(C)[C@@H](Cc1ccccc1)C(=O)NCCO` [DAMGO, D-Ala(2)-N-Me-Phe(4)-Gly-ol(5)-enkephalin, reference compound], for which, at human MOR-GFP, the “MOR internalization (vesicle formation)” value is on record as “vesicles were observed in the intracellular space; also recorded: induced vesicle formation”. Further, at human MOR [11], the “Effect on forskolin-induced increase of intracellular cAMP” value is on record as “inhibited the increase of intracellular cAMP”.

Regarding `COC[C@]12CN(C)C3[C@@H]4[C@H](OC)[C@H]1[C@@]3([C@@H](OC)C[C@H]2O)[C@@H]1C[C@@]2(O)[C@H](OC(=O)c3ccccc3)[C@@H]1[C@]4(O)[C@@H](O)[C@@H]2OC` [benzoylmesaconine], at human MOR [2], the “% Inhibition of [3H]-diprenorphine binding, MOR” value is on record as 2%. For the same molecule, the “% Inhibition of radioligand binding, DOR” value in [3] was -8%. For the same molecule, the “% Inhibition of [3H]-diprenorphine binding, KOR” value at human KOR (10 µM) is “Neither ignavine nor benzoylmesaconine inhibited”; at human KOR (listed as Benzoylmesaconine, 10 µM), 3%. Also, the “% Inhibition of radioligand binding, NOP” value in data set [4] is recorded as -9%. The “% Inhibition … rat brain” value in the data set on rat whole brain [5] was 17%. The “Plasma concentration after oral GJG” value in data set [8] is given as “higher concentrations”.

Take `C=CCN1CC[C@]23c4c5ccc(O)c4O[C@H]2C(=O)CC[C@@]3(O)[C@H]1C5` [naloxone]: the negative logarithm of the Kd (pKd) on rat whole brain [12] was 8.85.

A word on the inhibition: it is the relative decrease from the control value, in per cent. The term pIC50 denotes the IC50 on a negative log10 scale, so that one unit is a factor of ten. A lower pIC50 goes with a high IC50. As usually defined, the pKd is the negative decadic logarithm of the Kd, by convention in mol/L.

The values are drawn from publication PMC4987652 (Scientific Reports, 2016).
